Where two headings read alike, the source gives them in different places.
What was measured:
p38 kinase = biological target: T1, p38 kinase (Homo sapiens, UniProt Q16539); assay: p38 Kinase Assay; type: biochemical
T1 construct: GST (N); made in house; host or cells: E. coli

[1] = test system: TNF release from human peripheral blood mononuclear cells (PBMNC); assay: Cell Based Assay for Cytokines Production in PBMNC (TNF release after LPS); settings: PBMC, read-out: TNF/PBMNC (inhibition of TNF release from human PBMNC following stimulation with LPS, IC50)
Method: Cell Based Assay for Cytokines Production in PBMNC
Human peripheral blood mononuclear cells were isolated from heparinized blood by LSM (Organon Teknika) from volunteer donors. Purified human peripheral blood mononuclear cells were then suspended at a concentration of 2×10^6 cells/ml in RPMI 1640 medium supplemented with 10% heat-inactivated FBS and 1% antibiotics. Aliquots of 100 μl (2×10^5 cells) were added to 96-well microliter plates. Test compounds at […] dose ranges (final-DMSO concentration in culture medium was 0.1%) were then added to the cells for 10–15 minutes before the addition of lipopolysaccharide (1 ng/ml). After incubation at 37° C. in a 5% CO2 incubator for 18–20 h, cell free supernatants were collected by centrifugation at 800 g. The supernatant was then assayed for the amount of TNFα and IL-1β by using Quantikine immunoassay kits developed by R&D Systems (Minneapolis, Minn.).

[2] = test system: serum TNFα elevation in mice treated with lipopolysaccharide (LPS); assay: Murine LPS-Stimulated Serum TNF Inhibition; type: in vivo; settings: Mus musculus, 1.5 h, dose 30 mpk, read-out: % inh. (dose): % inhibition of murine TNF production in mice following an LPS challenge
Method: Murine LPS—Stimulated Serum TNF Inhibition Protocol
The potency of compounds of the invention as inhibitors of serum TNFα elevation in mice treated with lipopolysaccharide (LPS) was determined as follows; a) for subcutaneous (s.c.) administration, test compound was dissolved in DMSO and added to a mixture of 0.9% sodium chloride solution and 30% Trappsol HPB-20 (Cyclodextrin Technology Development Inc., Gainesville, Fla. USA) for a final DMSO concentration of 1%. The dosing solution was sonicated briefly and 0.2 mL was injected subcutaneously 10 min prior to LPS injection; b) for per oral (p.o.) administration, test compounds were formulated in 0.2 mL of PBS and 0.1% Tween 80 and given orally via gavage 10 min prior to LPS administration.
C3/hen female mice were injected intraperitoneally with 200 μg/kg LPS (Escherichia coil, Serotype 0111:B4, Sigma Chemical Co, St. Louis, Mo.) in PBS and sacrificed 90 min later by CO2 asphyxiation. Blood was immediately taken from the caudal vena cava and plasma prepared and frozen at −80° C. Plasma concentrations of TNF were measured by ELISA (Genzyme Co., Cambridge Mass.).

[3] = Cell Based Efficacy (MTT Assay), cytotoxicity toward HFF; settings: human, HFF cells (human foreskin fibroblasts)
Method: Cell Based Efficacy (MTT Assay)
The potency of compounds of the invention are tested for their ability to inhibit cell proliferation and cell viability. The metabolic conversion of 3-(4,5-dimethylthiazol-2-yl)-2,5-diphenyltetrazolium bromide (MTT, Sigma #M2128) to a reduced form was a commonly used measure of cellular viability. Following was the procedure:
Cells are maintained in 75 cm^2 tissue culture flasks until ready for use. The cells are grown and plated for the assay in Dulbecco's modified Eagle's media containing 10% fetal bovine serum. For example, the following cell lines can be used: a) human foreskin fibroblasts (HFF), b) HT29 (human colon carcinoma cell line), c) MDA-MB468 (human breast carcinoma cell line), d) RKO (human colon adenocarcinoma cell line), e) SW620 (human colon carcinoma cell line), f) A549 (human lung carcinoma cell line), and g) MIA PACA (human pancreatic carcinoma cell line). Cells are maintained at 37° C. in 10% CO2, 90% humidified air. Cells are plated in 96-well tissue culture plates at the densities listed below (Table 6). 100 μL of cell suspension was added to each well of the 96-well plate except the top row of the plate which contains no cells and serves as a reference for the spectrophotometer.
Cells are incubated overnight in Dulbecco's modified Eagle's media containing 10% fetal bovine serum at 37° C. in 10% CO2, 90% humidified air prior to dosing. Cells are dosed in 10 sequential 3-fold dilutions starting at 30 μM depending upon the solubility of the compound. Compounds with solubilities of less than 30 μM are dosed at the highest soluble concentration. Stock solutions of compounds are made in 100% dimethyl sulfoxide (DMSO). Stock solutions are diluted in Dulbecco's modified Eagle's media containing 100 ug/mL gentamicin and 0.3 to 0.6% DMSO at the twice the highest concentration to be placed on the cells. If compounds have been dissolved in DMSO the final concentration of DMSO on the cells was kept below 0.3%. 3-fold serial dilutions are performed on each compound to prepare 10 concentrations of the compound for dosing. 100 μL of diluted compound was added to the 100 μL of media currently on the dish. For each concentration of compound, 2–4 replicate wells are prepared.
Cells are returned to incubator and allowed to proliferate in the presence of compound for 72 h before addition of MTT. MTT was prepared in phosphate buffered saline (Irvine Scientific #9240) at a concentration of 2 mg/mL. 50 μL per well of MTT solution was added to the 200 μL of media to yield a final concentration of 0.4 mg/mL and plates are returned to the incubator for 4 h. After 4 h incubation the media, compound and MTT mixture was aspirated from the plates and 100 μL of 100% DMSO was added to each well in addition to 25 uL of Sorenson's Buffer (0.1M glycine, 0.1M NaCl, pH 10.5). Quantitation of metabolic reduction of MTT in each plate was performed by reading optical density at 570 nm wavelength on a Molecular Devices UV max microplate reader. Growth inhibition curves and 50% inhibitory concentrations are determined using Microsoft Excel.

T1 sequence (Q16539 whole entry): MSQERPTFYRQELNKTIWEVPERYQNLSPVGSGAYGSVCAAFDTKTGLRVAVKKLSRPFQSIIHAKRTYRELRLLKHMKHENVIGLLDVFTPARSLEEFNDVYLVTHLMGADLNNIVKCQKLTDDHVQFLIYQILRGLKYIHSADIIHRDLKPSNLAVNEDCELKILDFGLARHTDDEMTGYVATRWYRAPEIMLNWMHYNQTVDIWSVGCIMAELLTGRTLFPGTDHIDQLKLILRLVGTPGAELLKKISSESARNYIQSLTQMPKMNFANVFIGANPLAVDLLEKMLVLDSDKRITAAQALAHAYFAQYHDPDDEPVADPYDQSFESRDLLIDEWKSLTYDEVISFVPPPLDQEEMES

| IC50 (p38 kinase; Table 8, compounds wherein Z is N, read-out: p38 kinase (inhibition of p38 kinase, IC50)) [nM] | IC50 ([1]; Table 8, LPS stimulation) [nM] | IC50 (p38 kinase; Table 7, compounds wherein Z is CH, read-out: P38 kinase (inhibition of p38 kinase, IC50)) [nM] | IC50 ([1]; Table 7, LPS stimulation) [nM] | Structure (SMILES) | inhibition in vivo at 30 mg/kg ([2]; Table 8, LPS challenge) [%] | IC50 at 72 h ([3]; Table 8, HFF cell line) [nM] | inhibition in vivo at 30 mg/kg ([2]; Table 7, LPS challenge) [%] | IC50 at 72 h ([3]; Table 7, HFF cell line) [nM] |
| --- | --- | --- | --- | --- | --- | --- | --- | --- |
| 500 to 5000 | 500 to 5000 | – | – | Fc1ccc(-c2nn3ccccc3c2-c2ccncn2)cc1 [Example 56, 2-(4-Fluorophenyl)-3-(4-pyrimidinyl)-pyrazolo[1,5-a]pyridine] | 67 | > 50000 | – | – |
| – | – | < 500 | < 500 | OCCCNc1cc(-c2c(-c3ccc(F)cc3)nn3ccccc23)ccn1 [Example 30, 3-(4-[2-(4-Fluorophenyl)pyrazolo[1,5-a]pyridin-3-yl]-2-pyridinylamino)-1-propanol] | – | – | 45 | > 50000 |

From patent US7166597B2, “Fused pyrazole derivatives being protein kinase inhibitors” (Glaxo Group Limited, priority 2000, dated 2007)
